This note sets out measurements from patent US20080318954A1, “Compounds” (Cyclacel Limited, priority 2004, published 2008).

Experiment [1] concerns the target T1, CDK4/cyclin D1 (Homo sapiens, UniProt P11802).
T1 construct: His6 (N); made in house; host or cells: CDK4: Sf9 insect cells (baculovirus); Cyclin D1: E. coli, Sf9
Nature of the experiment: CDK/cyclin kinase assay, CDK4/cyclin D1. The experiment is classed as biochemical. As for the experimental part:
CDK4/cyclin D1, CDK1/cyclin B, CDK2/cyclin E, CDK2/cyclin A, CDK9/cyclin T1 and CDK7/cyclin H, all with a His6 tag on the N-terminus, were expressed in Sf9 insect cells using an appropriate baculovirus construct. Sf9 culture (1.6×10^6 cells/mL) was infected (MOI of 3) for two days. The cells were harvested by low speed centrifugation and the protein was purified from the insect cell pellet by metal affinity chromatography. In short: the insect cell pellet was lysed in Buffer A (10 mM Tris-HCl pH 8.0, 150 mM NaCl, 0.02% NP-40, 5 mM β-mercaptoethanol, 20 mM NaF, 1 mM Na3VO4, and Sigma Protease Inhibitor Cocktail) by sonication. The soluble fraction was cleared by centrifugation and loaded onto Ni-NTA-Agarose (Qiagen). Non-bound protein was washed off with 300 mM NaCl, 5-15 mM imidazole in buffer A and the bound protein was eluted with buffer A supplemented with 250 mM imidazole. The purified proteins were extensively dialyzed against storage buffer (20 mM HEPES pH 7.4, 50 mM NaCl, 2 mM DTT, 1 mM EDTA, 1 mM EGTA, 0.02% NP-40, 10% v/v glycerol) and stored at −70° C.
Compounds were investigated for their CDK2/cyclin E, CDK2/cyclin A, CDK1/cyclin B, and CDK4/cyclin D1 inhibitory activity. His6-tagged recombinant human cyclin-dependent kinases CDK1/cyclin B1, CDK2/cyclin E, CDK2/cyclin A, and CDK4 were expressed in sf9 insect cells using a baculovirus expression system. Recombinant cyclin D1 was expressed in E. coli. Proteins were purified by metal chelate affinity chromatography to greater than 90% homogeneity. Kinase assays were performed in 96-well plates using recombinant CDK/cyclins. Assays were performed in assay buffer (25 mM β-glycerophosphate, 20 mM MOPS, 5 mM EGTA, 1 mM DTT, 1 mM […], pH 7.4), into which were added 2-4 μg of active enzyme with appropriate substrates (purified histone H1 for CDK1 and CDK2, recombinant GST-retinoblastoma protein (residues 773-928) for CDK4). The reaction was initiated by addition of Mg/ATP mix (15 mM MgCl2+100 μM ATP with 30-50 kBq per well of [γ-^32P]-ATP) and mixtures incubated for 10-45 min, as required, at 30° C. Reactions were stopped on ice, followed by filtration through p81 or GF/C filterplates (for CDK4) (Whatman Polyfiltronics, Kent, UK). After washing 3 times with 75 mM aq orthophosphoric acid, plates were dried, scintillant added and incorporated radioactivity measured in a scintillation counter (TopCount, Packard Instruments, Pangbourne, Berks, UK). Compounds for kinase assays were made up as 10 mM stocks in DMSO and diluted into 10% DMSO in assay buffer. Data was analysed using curve-fitting software (GraphPad Prism version 3.00 for Windows, GraphPad Software, San Diego Calif. USA) to determine IC50 values (concentration of test compound which inhibits kinase activity by 50%).

In experiment [2] the test system is glycogen synthase activity in HEK293 cells. Kind of experiment: Glycogen synthase (GS) assay in HEK293 cells. It is filed as cell-based, human. As for the experimental part: Cells on 10 cm dishes (Human Embryonic Kidney (HEK) 293 cells, L6 rat myocytes, or 3T3 mouse adipocytes) were treated with different concentrations of GSK3-inhibitors or DMSO vehicle for 90 min. Incubation medium was removed and cells were washed with ice-cold phosphate-buffered saline (PBS) prior to lysis on ice in 50 mM HEPES, pH 7.5, 10 mM EDTA, 100 mM NaF, 5 mM DTT, protease inhibitor cocktail (Sigma). After a freeze/thaw cycle the samples are sonicated for 10 sec and centrifuged at 15,000 g for 10 min at 4° C. Lysate supernatants were snap-frozen on liquid nitrogen and stored at −80° C. Lysates were assayed for glycogen synthase activity in buffer (50 mM Tris-HCl, pH 7.8, 20 mM EDTA, 25 mM NaF, 5 mM DTT, 1% glycogen, 0.3 mM UDP-glucose and 0.06 μCi of [^14C]-UDP-glucose in the presence of 0.1 or 10 mM glucose-6-phosphate. The reaction was carried out for 30 min at 30° C. 70 μL of the reaction mixture (total volume 90 μL) were transferred to a GFC 96-well filter plate (bottom sealed with foil), containing 140 μL 96% ethanol. The GFC plate was incubated for 1 h on ice and than washed with 66% ethanol. To each well 100 μL scintillant liquid was added and the radioactivity of the samples was measured using a scintillation counter (Topcount, HP). Data are expressed as -fold increase in glycogen synthase activity ratios over those of control samples.

For experiment [3], the system named is β-catenin in HEK293 cells. Nature of the experiment: β-catenin accumulation and phosphorylation in HEK293 cells. The experiment is classed as cell-based, human. The settings on record: up to 5 μM. The source says: One of the possible toxicities related to GSK3 inhibition is the accumulation of β-catenin, which has been implicated in the development of colon cancer and melanoma. The effect of example compound XIV on the endogenous levels of β-catenin in HEK293 cells was studied at concentrations that are effective in activation of cellular glycogen synthase.

Experiment [4] addresses T2, SAPK4/p38d (Homo sapiens, UniProt O15264).
T2 construct: Dundee University (panel)
Kind of experiment: Protein kinase panel selectivity screen, SAPK4/p38d. It is filed as biochemical. The settings on record: 1 μM compound. The method, then: (§1) The names of the 29 kinases comprising the selectivity screen, as well as the ATP concentrations used in each kinase case, are given in Table 5. The kinase assays were carried out as described previously.
(§2) Compound XIV at a concentration of 1 μM was screened in the 29-kinase panel (Dundee University) and the results are shown bellow in Table 6.

Experiment [5] addresses T3, MAPKAP-K1a (Homo sapiens, UniProt Q15418).
T3 construct: Dundee University (panel)
Nature of the experiment: Protein kinase panel selectivity screen, MAPKAP-K1a. Particulars: 1 μM compound; [ATP] 50 μM. The experiment is classed as biochemical. As for the experimental part:
as §1, §2

The target in experiment [6] is T4, GSK3b (Homo sapiens, UniProt P49841).
T4 construct: Dundee University (panel)
T4 sequence (P49841 whole entry, species assumed): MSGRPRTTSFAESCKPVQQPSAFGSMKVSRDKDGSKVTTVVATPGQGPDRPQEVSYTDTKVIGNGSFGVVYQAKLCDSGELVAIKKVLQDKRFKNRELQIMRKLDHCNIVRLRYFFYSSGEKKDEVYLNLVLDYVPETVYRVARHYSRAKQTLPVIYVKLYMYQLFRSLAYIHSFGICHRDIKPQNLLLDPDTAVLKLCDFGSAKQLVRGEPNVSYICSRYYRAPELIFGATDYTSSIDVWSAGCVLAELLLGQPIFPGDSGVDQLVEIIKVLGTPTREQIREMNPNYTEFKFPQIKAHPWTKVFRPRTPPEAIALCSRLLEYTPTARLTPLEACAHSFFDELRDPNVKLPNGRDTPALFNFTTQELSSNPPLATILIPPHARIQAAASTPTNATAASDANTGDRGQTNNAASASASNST
Kind of experiment: Protein kinase panel selectivity screen, GSK3b. It is filed as biochemical. The settings on record: 1 μM compound. As for the experimental part: as §1, §2

Experiment [7] deals with AMPK. Nature of the experiment: Protein kinase panel selectivity screen, AMPK. It is filed as biochemical. Particulars: 1 μM compound; [ATP] 50 μM. The method, then: as §1, §2
Experiment [8] deals with CK1. Kind of experiment: Protein kinase panel selectivity screen, CK1. It is filed as biochemical. The settings on record: 1 μM compound; [ATP] 20 μM. As for the experimental part:
as §1, §2

Experiment [9] has as its target T5, DYRK1a (Homo sapiens, UniProt Q13627).
T5 construct: Dundee University (screening panel)
Kind of experiment: Protein kinase panel selectivity screen, DYRK1a. It is filed as biochemical. Particulars: 1 μM compound; [ATP] 50 μM. As for the experimental part:
as §1, §2

Entries after “also recorded” stand apart in the source; their conditions may differ. Where only a bound is given, the exact number is not on record here.

What is called Ki is a dissociation constant, usually derived from enzyme kinetics or from competition with a known ligand. By EC50 is commonly meant the concentration needed to bring the measured effect to its halfway point. The fold induction is the ratio of treated to control signal. The inhibition is the change of the read-out against control, counted positive when it falls.

T1 sequence (P11802 whole entry): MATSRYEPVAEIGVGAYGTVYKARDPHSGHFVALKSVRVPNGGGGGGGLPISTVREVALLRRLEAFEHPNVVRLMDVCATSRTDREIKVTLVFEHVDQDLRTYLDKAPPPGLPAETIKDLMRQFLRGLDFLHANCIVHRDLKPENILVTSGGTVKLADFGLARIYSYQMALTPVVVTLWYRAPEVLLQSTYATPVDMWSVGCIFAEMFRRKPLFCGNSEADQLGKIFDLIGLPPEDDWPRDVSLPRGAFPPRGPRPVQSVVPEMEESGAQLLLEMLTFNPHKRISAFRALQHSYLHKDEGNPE
T1 sequence (P24385 whole entry partner): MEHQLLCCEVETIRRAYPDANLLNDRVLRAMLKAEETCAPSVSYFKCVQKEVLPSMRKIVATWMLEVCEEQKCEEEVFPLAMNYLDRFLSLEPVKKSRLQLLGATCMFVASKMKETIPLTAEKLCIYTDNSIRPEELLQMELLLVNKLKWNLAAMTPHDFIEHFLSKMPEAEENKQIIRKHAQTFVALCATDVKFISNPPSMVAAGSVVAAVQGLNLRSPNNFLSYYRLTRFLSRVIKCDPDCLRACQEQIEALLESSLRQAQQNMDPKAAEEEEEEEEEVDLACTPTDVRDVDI
T2 sequence (O15264 whole entry): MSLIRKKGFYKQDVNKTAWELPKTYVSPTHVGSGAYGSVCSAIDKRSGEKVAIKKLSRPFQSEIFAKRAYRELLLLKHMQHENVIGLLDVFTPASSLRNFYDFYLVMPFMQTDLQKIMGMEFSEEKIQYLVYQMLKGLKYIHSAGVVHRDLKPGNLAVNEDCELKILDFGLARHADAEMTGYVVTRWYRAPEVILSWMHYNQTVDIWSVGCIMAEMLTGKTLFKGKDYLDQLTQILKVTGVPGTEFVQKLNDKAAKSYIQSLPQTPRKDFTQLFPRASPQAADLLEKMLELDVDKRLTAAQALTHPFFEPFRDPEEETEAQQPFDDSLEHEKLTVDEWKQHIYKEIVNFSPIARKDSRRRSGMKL
T3 sequence (Q15418 whole entry, species assumed): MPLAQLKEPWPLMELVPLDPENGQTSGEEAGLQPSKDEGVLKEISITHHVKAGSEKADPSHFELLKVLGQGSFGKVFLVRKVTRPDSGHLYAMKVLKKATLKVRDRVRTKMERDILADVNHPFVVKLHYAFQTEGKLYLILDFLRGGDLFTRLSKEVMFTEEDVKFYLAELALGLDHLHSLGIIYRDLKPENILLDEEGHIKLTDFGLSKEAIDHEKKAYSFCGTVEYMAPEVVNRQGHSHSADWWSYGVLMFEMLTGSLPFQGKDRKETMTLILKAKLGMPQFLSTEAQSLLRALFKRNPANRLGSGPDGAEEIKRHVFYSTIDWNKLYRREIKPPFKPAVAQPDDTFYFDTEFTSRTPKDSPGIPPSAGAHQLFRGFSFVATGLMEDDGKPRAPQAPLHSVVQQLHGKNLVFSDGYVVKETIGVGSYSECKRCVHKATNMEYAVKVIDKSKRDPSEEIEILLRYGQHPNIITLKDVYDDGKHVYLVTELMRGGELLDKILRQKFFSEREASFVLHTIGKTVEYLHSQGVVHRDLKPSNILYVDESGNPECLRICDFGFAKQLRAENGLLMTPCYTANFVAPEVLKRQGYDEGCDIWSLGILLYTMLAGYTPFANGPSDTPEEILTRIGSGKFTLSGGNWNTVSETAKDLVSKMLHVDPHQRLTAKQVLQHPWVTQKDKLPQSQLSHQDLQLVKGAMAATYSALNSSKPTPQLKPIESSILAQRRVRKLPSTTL

On to `Clc1ccc(Nc2nccc(-c3nccs3)n2)cn1` [Compound XIV, (6-Chloro-pyridin-3-yl)-(4-thiazol-2-yl-pyrimidin-2-yl)-amine], for which the Ki in [1] was above 100 µM. The “Fold selectivity for GSK3 over CDK4/cyclin D1” value in experiment [1] (from Ki) was >6,250 fold. Also, the IC50 in experiment [1] (read-out: Kinase inhibition IC50 CDK4/D1) was above 100 µM. Further, in [2] (HEK293 cells, 5 μM), the “Activation of GS compared with 40 mM LiCl” value is reported as “comparable to that induced by 40 mM LiCl”. For the same molecule, the “Activity of glycogen synthase (fractional velocity)” value in experiment [2] (HEK293 cells, ratio of activity at 0.1 and 10 mM glucose-6-phosphate) is reported as “increased the activity of glycogen synthase”. Further, in experiment [2] (Homo sapiens, HEK293, from dose-response curves, read-out: EC50 activation of glycogen synthase), the EC50 stood at 1.5 ± 0.6 µM. The fold induction at 0.1 µM in experiment [2] (Homo sapiens, HEK293 cells, 0.1 μM) turned out to be 0.9. Also, the fold induction at 0.5 µM in [2] (Homo sapiens, HEK293 cells, 0.5 μM) was determined as 1.1. Further, in experiment [2] (Homo sapiens, HEK293 cells, 1 μM), the fold induction at 1 µM was 1.6. In addition, the fold induction at 5 µM in experiment [2] (Homo sapiens, HEK293 cells, 5 μM (Table 4)) amounted to 3.3; in experiment [2] (Homo sapiens, In HEK293 cells at [compound] = 5 μM (Table 2)) it was 3.7. The “Levels of cellular β-catenin” value in [3] is given as “lack of β-catenin accumulation; also recorded: did not change significantly”. Further, the “Phosphorylation of β-catenin at the GSK3-specific sites S33,37/T41” value in [3] is reported as “did not inhibit the phosphorylation”. In experiment [4], the inhibition at 1 µM is around 40%. The activity at 1 µM was determined as 91 ± 9% in experiment [4] ([ATP] 5 μM), 60 ± 1% in experiment [5], 13 ± 5% in experiment [6] ([ATP] 5 μM) and 74 ± 8% in experiment [9]. In experiment [6], the “Selectivity in the 29-kinase panel” value was “highly selective for GSK3”. Further, the “% Activity AMPK” value in experiment [7] is 82 ± 5%. Further, in experiment [8], the “% Activity CK1” value is listed as 69 ± 1%.
